Measurements: patent US9951271B2, “Process for making an asymmetric fluorophore” (UNITED STATES OF AMERICA, AS REPRESENTED BY THE SECRETARY …, priority 2015, dated 2018)

Experiments:
[1] = Photophysical characterization (UV-Vis, fluorescence emission, relative quantum yield); assay type: physicochemical
Method: The UV-Vis and fluorescence emission spectra were recorded on a Synergy HT (BioTek Instruments, Inc.) multi-detection microplate reader equipped with a 10 W Xe flash light source for absorbance and a 20 W tungsten quartz halogen source for fluorescence. Relative quantum yields were determined using rhodamine 6G in ddH2O as a reference while keeping instrument temperature and parameters constant. Serial dilutions of the asymmetric fluorophore (6) were made from a methanol stock; therefore, all dilutions of asymmetric fluorophore (6) were kept at 10% MeOH in water. All fluorescent spectra were intensity corrected using NIST SRM 2941 (excitation wavelength at 427 nm, scan emission monochromator from 450 nm to 650 nm using a 1 nm increment).

[2] = Aqueous solubility of the fluorophore; assay type: physicochemical; conditions: pH independent, diluted to 0.1% DMSO from 100 mM DMSO stock
Method: The resulting fluorophore (6) was soluble in aqueous solutions (pH independent) up to […] and was diluted down to 0.1% DMSO from a 100 mM, 100% DMSO stock solution. […] Compound (6) has a sharp fluorescence peak and high quantum yield.

NIH 3T3 cells [3] = assay: Fixed cell imaging (whole-cell staining); assay type: cell-based; conditions: fixed NIH 3T3 cells, 1 μM
Method: NIH 3T3 cell line was obtained from ATCC (Manassas, Va.) and cultured routinely using sterile technique. Cell culture media consisted of DMEM supplemented with 10% FBS and 4 mM GlutaMax (Life Technologies). Both live and fixed cell automated microscopy was performed on a Zeiss AxioObserver Z1 (Carl Zeiss MicroImaging Inc., Jena, Germany) with an EC Plan-Neofluar 10×/0.30 Ph 1 objective (Carl Zeiss, Jena, Germany), and a Coolsnap HQ2 camera (Photometrics, Tucson, Ariz.). All fluorescent microscopy images were collected using a HE38 filter set (Carl Zeiss, Jena, Germany), a Colibri.2 LED light source at 100% intensity, and an exposure time of either 200 ms or 1 second. Performance benchmarking of the fluorescence microscope was performed daily. […] ImageJ (National Institutes of Health, Bethesda, Md.) was used to create figures and to determine the mean fluorescence intensity of cells.
One day prior to imaging, NIH 3T3 cells were seeded at 20,000 cells per well in a 24-well plate (Corning Costar, TC-treated). […] Using ImageJ (National Institutes of Health, Bethesda, Md.) individual cell fluorescence intensities were measured by first segmenting the 8-bit tiff image for the 4/CFSE/FNHS channel by manually finding the minimum intensity below which object boundaries began to expand into the background (the built-in watershed algorithm was also utilized to separate touching objects). […]

NIH 3T3 cells [4] = assay: Basal cytotoxicity MTS assay (cell viability); assay type: cell-based; conditions: concentrations below 10 μM, 72-hour incubation, FIG. 6
Method: On day one, 5,000 cells per well were plated on a clear 96-well plate (Corning Costar, TC-treated) along with several blank wells with media only. The next day, the media was replaced with 180 μL of DPBS with glucose and 20 μL of 4 (final concentrations from 30 μM to 1 nM were tested, final DMSO concentration=0.1%) and incubated for 30 minutes. The dye solution was removed from the wells and 200 μL of fresh media was added to each well in the plate. The plate was then incubated (37° C., 5% CO2) for 72 hours. Then 40 μL of MTS (Promega, CellTiter 96® AQueous One Solution Cell Proliferation Assay) was added to each well and the plate was incubated (37° C., 5% CO2) for 4 hours. The absorbance of each well at 540 nm was measured on a Synergy HT plate reader (BioTek Instruments, Inc.). All assays were performed in triplicate on three separate plates.

NIH 3T3 cells [5] = assay: Live cell imaging (whole-cell staining); assay type: cell-based; conditions: live NIH 3T3 cells; for staining pattern compared under same conditions and concentrations: 100 nM, FIG. 3
Method: NIH 3T3 cell line was obtained from ATCC (Manassas, Va.) and cultured routinely using sterile technique. Cell culture media consisted of DMEM supplemented with 10% FBS and 4 mM GlutaMax (Life Technologies). Both live and fixed cell automated microscopy was performed on a Zeiss AxioObserver Z1 (Carl Zeiss MicroImaging Inc., Jena, Germany) with an EC Plan-Neofluar 10×/0.30 Ph 1 objective (Carl Zeiss, Jena, Germany), and a Coolsnap HQ2 camera (Photometrics, Tucson, Ariz.). All fluorescent microscopy images were collected using a HE38 filter set (Carl Zeiss, Jena, Germany), a Colibri.2 LED light source at 100% intensity, and an exposure time of either 200 ms or 1 second. Performance benchmarking of the fluorescence microscope was performed daily. All imaging was done on the same day on the same microscope to decrease variations in image intensities. ImageJ (National Institutes of Health, Bethesda, Md.) was used to create figures and to determine the mean fluorescence intensity of cells.
One day prior to imaging, NIH 3T3 cells were seeded at 10,000 cells per well in a 24-well plate (Corning Costar, TC-treated). After 24 hours of incubation (37° C., 5% CO2), the media was removed from the plate and cells were washed once with DPBS (Ca and Mg free, Life Sciences). A total of 320 μL of DPBS with glucose was added to each well, and then 40 μL of Hoechst 33342 (final concentration of 0.5 μg/mL) and 40 μL of 4 (final concentrations from 10 μM to 1 nM were tested, final DMSO concentration=0.1%) or CFSE (final concentrations from 10 μM to 1 nM were tested, final DMSO concentration=0.1%). […] Using ImageJ (National Institutes of Health, Bethesda, Md.) individual cell fluorescence intensities were measured by first segmenting the 8-bit tiff image for the 6/CFSE/FNHS channel by manually finding the minimum intensity below which object boundaries began to expand into the background (the built-in watershed algorithm was also utilized to separate touching objects). Using a histogram of object sizes, the minimal object area was chosen and pixel intensity for each of those objects were recorded. […]

Molecule	emission ([1]; 10% aqueous methanol, FIG. 1)	maximum excitation ([1]; 10% aqueous methanol, FIG. 1)	relative quantum yield ([1]; 10% aqueous methanol, reference rhodamine 6G in ddH2O)	maximum absorption ([1]; water (10% MeOH), FIG. 1 legend)	maximum excitation (excited at 500 nm) ([1]; water (10% MeOH), excited at 500 nm, FIG. 1 legend)	soluble in aqueous solutions [2]	fluorescence intensity relative to FNHS (quantitative image analysis) (NIH 3T3 cells [3]; FIG. 4)	brightness by visual appearance versus FNHS (NIH 3T3 cells [3]; same conditions, FIG. 5)	change in cell viability (NIH 3T3 cells [4])	staining pattern compared under same conditions and concentrations (NIH 3T3 cells [5])	staining of live cells (membrane crossing, localisation) (NIH 3T3 cells [5]; 30 minutes of staining, 1 μM, FIG. 2)
CC1=C(CCC(=O)ON2C(=O)CCC2=O)C(C)=[N+]2C1=Cc1cccn1[B-]2(F)F [Compound 6, 4,4-difluoro-1,3-dimethyl-4-bora-3a,4a-diaza-s-indacene-2-propionic acid N-hydroxysuccinimide ester]	516 nm	502 nm	0.84	502 nm	516 nm	up to 1 μM	three fold brighter than FNHS	appeared brighter than FNHS	no significant change in cell viability	less diffuse staining	crossed the cell membrane and stained the cytoplasmic regions with some nuclear staining
carboxyfluorescein succinimidyl ester [CFSE, reference compound]										more diffuse staining pattern	
